Reference: patent EP4800015A1, “AZABICYCLO DERIVATIVE AND PREPARATION METHOD THEREFOR, AND USE” (Zhejiang Hisun Pharmaceutical Co., Ltd., priority 2023, dated 2025)

molecular target: T1, recombinant human WRN (Homo sapiens, UniProt Q14191); test: Inhibition of WRN enzyme activity (ATPase), ADP-Glo Kinase Assay; type: biochemical; details: WRN protein 5 nM, Flap 0.1 nM, ATP 30 µM; read-out: IC50
T1 construct: purchased BPS 101264
How it was run: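 Recombinant human WRN (5 nM) was preincubated with compound (1000–0.004 nM) for 15 min at room temperature. Flap26 5'-flap DNA (0.1 nM) and 30 µM ATP were then added for 10 min in Tris pH 7.5, MgCl2, NaCl, BSA, Pluronic buffer. ADP was detected by ADP-Glo luminescence, and IC50 was obtained by nonlinear regression versus a 0.1% DMSO control.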

T1 sequence (Q14191 whole entry): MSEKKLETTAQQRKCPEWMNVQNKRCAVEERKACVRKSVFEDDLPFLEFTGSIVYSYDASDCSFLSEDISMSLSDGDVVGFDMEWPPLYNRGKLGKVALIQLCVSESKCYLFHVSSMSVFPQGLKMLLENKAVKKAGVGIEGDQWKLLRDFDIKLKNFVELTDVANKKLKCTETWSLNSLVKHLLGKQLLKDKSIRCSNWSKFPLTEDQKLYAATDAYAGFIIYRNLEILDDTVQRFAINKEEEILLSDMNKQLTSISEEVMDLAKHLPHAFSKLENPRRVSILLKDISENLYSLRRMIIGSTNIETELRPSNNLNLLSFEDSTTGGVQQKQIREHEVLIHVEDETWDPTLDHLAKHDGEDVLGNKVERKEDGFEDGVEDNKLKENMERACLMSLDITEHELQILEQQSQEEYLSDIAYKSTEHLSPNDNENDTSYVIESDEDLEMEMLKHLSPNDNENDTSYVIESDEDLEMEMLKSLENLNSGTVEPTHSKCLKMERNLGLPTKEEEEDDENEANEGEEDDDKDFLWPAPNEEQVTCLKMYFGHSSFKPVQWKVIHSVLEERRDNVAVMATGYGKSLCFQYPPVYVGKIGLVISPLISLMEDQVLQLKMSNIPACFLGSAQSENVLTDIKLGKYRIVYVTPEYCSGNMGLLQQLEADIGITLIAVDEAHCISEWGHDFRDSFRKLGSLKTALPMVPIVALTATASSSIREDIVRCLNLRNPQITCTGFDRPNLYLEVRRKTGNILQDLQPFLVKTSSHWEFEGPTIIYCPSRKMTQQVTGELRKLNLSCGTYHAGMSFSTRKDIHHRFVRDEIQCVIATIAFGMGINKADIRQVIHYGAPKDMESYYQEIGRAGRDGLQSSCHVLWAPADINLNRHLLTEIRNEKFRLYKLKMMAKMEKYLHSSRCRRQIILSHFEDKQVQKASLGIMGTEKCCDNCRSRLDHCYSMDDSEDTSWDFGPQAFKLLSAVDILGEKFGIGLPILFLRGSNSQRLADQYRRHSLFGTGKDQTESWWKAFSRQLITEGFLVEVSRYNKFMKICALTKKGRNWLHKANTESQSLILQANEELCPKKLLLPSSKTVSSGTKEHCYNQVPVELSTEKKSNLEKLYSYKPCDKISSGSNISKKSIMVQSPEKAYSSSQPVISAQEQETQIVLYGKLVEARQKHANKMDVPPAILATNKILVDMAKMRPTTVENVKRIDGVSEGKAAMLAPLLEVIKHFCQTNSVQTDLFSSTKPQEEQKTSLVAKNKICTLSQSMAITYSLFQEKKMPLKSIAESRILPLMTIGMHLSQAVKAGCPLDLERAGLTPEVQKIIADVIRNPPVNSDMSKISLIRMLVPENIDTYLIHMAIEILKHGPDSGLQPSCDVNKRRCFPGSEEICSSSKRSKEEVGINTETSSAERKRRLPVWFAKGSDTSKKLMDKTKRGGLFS

Row | IC50 | Structure (SMILES)
1 | 1 to 100 nM | CCc1c(N2CCN(C(=O)c3ncnc(C)c3O)CC2)c(=O)n2nc(-c3ccc4ccoc4c3)cc2n1CC(=O)Nc1ccc(C(F)(F)F)cc1Cl [Example 57, 2-(2-(benzofuran-6-yl)-5-ethyl-6-(4-(5-hydroxy-6-methylpyrimidine-4-carbonyl)piperazin-1-yl)-7-oxopyrazolo[1,5-a]pyrimidin-4(7H)-yl)-N-(2-chloro-4-(trifluoromethyl)phenyl)acetamide]
2 | 1 to 100 nM | CCc1c(N2CCN(C(=O)c3ncnc(C)c3O)CC2)c(=O)n2nc(-c3cc4cccnc4s3)nc2n1CC(=O)Nc1ccc(C(F)(F)F)cc1Cl [Example 131, N-(2-chloro-4-(trifluoromethyl)phenyl)-2-(5-ethyl-6-(4-(5-hydroxy-6-methylpyrimidine-4-carbonyl)piperazin-1-yl)-7-oxo-2-(thieno[2,3-b]pyridin-2-yl)-[1,2,4]triazolo[1,5-a]pyrimidin-4(7H)-yl)a cetamide]
3 | 1 to 100 nM | CCc1c(N2CCN(C(=O)c3ncnc(C)c3O)CC2)c(=O)n2nc(/C=C/c3ccccn3)nc2n1CC(=O)Nc1ccc(C(F)(F)F)cc1Cl [Example 37, (E)-N-(2-chloro-4-(trifluoromethyl)phenyl)-2-(5-ethyl-6-(4-(5-hydroxy-6-methylpyrimidine-4-carbonyl)piperazin-1-yl)-7-oxo-2-(2-(pyridin-2-yl)vinyl)-[1,2,4]triazolo[1,5-a]pyrimidin-4(7H)-yl)a cetamide]
4 | 1 to 100 nM | CCc1c(N2CCN(C(=O)c3ncnc(C)c3O)CC2)c(=O)n2nc(C3=CC4(CCC4)C3)nc2n1CC(=O)Nc1ccc(C(F)(F)F)cc1Cl [Example 50, N-(2-chloro-4-(trifluoromethyl)phenyl)-2-(5-ethyl-6-(4-(5-hydroxy-6-methylpyrimidine-4-carbonyl)piperazin-1-yl)-7-oxo-2-(spiro[3.3]hept-1-en-2-yl)-[1,2,4]triazolo[1,5-a]pyrimidin-4(7H)-yl)ac etamide]
5 | 1 to 100 nM | CCc1c(N2CCN(C(=O)c3ncccc3O)CC2)c(=O)n2nc(-c3cc4ccccc4s3)nc2n1CC(=O)Nc1ccc(C(F)(F)F)cc1Cl [Example 79, 2-(2-(benzo[b]thiophen-2-yl)-5-ethyl-6-(4-(3-hydroxypicolinoyl)piperazin-1-yl)-7-oxo-[1,2,4]triazolo[1,5-a]pyrimidin-4(7H)-yl)-N-(2-chloro-4-(trifluoromethyl)phenyl)acetamide]
6 | 1 to 100 nM | CCc1c(N2CCN(C(=O)c3ncnc(C)c3O)CC2)c(=O)n2nc(N3CC4(COC4)C3)nc2n1CC(=O)Nc1ccc(C(F)(F)F)cc1Cl [Example 16, N-(2-chloro-4-(trifluoromethyl)phenyl)-2-(5-ethyl-6-(4-(5-hydroxy-6-methylpyrimidine-4-carbonyl)piperazin-1-yl)-7-oxo-2-(2-oxa-6-azaspiro[3.3]heptan-6-yl)-[1,2,4]triazolo[1,5-a]pyrimidin-4(7H)-yl)acetamide]
7 | 1 to 100 nM | CCc1c(N2CCN(C(=O)c3ncnc(C)c3O)CC2)c(=O)n2nc(C=C3CCCC3)nc2n1CC(=O)Nc1ccc(C(F)(F)F)cc1Cl [Example 117, N-(2-chloro-4-(trifluoromethyl)phenyl)-2-(2-(cyclopentylidenemethyl)-5-ethyl-6-(4-(5-hydroxy-6-methylpyrimidine-4-carbonyl)piperazin-1-yl)-7-oxo-[1,2,4]triazolo[1,5-a]pyrimidin-4(7H)-yl)a cetamide]
8 | 1 to 100 nM | CCc1c(N2CCN(C(=O)c3ncnc(C)c3O)CC2)c(=O)n2nc(C3=CCCCCC3)cc2n1CC(=O)Nc1ccc(S(F)(F)(F)(F)F)cc1 [Example 59, 2-(2-(cyclohept-1-en-1-yl)-5-ethyl-6-(4-(5-hydroxy-6-methylpyrimidine-4-carbonyl)piperazin-1-yl)-7-oxopyrazolo[1,5-a]pyrimidin-4(7H)-yl)-N-(4-(pentafluoro-λ^6-sulfaneyl)phenyl)acetamide]
